System: cardiac β1-AR (position 389 genotype)
Assay type: in vivo, human
Conditions: Gly389/Arg389 heterozygous heart failure patients; difference before vs after >6 months on a stable dose
Description: The study was approved by the University of Cincinnati Institutional Review Board and the patients gave informed consent. […] LVEF was determined by radionuclide ventriculography before initiation of drug treatment and after a maintenance period of >6 months on a stable dose. The change in LVEF was reported as the difference between values before and after drug treatment.

SMILES: COc1ccccc1OCCNCC(O)COc1cccc2[nH]c3ccccc3c12 (stereo not shown) [carvedilol]
- improvement in LVEF: improvement similar to that of Arg389-homozygous patients
